Reference: patent publication US9611278B2 (Merck Sharp & Dohme Corp., priority 2013, dated 2017)

Target: T1, sGC α1/β1 heterodimer stably expressed in CHO-K1 cells (CHO-K1/sGC) (Homo sapiens, UniProt Q02108+Q02153)
T1 construct: expressed in transfected cells
T1 sequence (Q02108 1-690): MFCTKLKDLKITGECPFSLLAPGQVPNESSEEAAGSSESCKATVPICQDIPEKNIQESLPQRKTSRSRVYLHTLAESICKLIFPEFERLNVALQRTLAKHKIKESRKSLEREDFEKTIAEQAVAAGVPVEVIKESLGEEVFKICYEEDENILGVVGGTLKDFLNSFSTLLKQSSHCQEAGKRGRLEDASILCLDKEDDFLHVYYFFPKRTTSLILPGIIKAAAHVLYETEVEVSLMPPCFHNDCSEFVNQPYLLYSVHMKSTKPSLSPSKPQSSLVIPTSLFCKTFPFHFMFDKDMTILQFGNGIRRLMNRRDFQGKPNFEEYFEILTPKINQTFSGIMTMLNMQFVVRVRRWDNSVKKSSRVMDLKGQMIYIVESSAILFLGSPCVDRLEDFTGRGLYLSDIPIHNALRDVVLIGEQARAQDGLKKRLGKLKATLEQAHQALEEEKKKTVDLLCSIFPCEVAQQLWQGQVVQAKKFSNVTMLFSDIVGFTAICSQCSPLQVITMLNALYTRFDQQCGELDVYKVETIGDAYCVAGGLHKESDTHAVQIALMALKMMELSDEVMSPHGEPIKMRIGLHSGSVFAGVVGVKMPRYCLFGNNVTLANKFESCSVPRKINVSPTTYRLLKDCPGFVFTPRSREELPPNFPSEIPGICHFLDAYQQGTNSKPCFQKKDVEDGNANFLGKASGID
T1 sequence (Q02153 1-619): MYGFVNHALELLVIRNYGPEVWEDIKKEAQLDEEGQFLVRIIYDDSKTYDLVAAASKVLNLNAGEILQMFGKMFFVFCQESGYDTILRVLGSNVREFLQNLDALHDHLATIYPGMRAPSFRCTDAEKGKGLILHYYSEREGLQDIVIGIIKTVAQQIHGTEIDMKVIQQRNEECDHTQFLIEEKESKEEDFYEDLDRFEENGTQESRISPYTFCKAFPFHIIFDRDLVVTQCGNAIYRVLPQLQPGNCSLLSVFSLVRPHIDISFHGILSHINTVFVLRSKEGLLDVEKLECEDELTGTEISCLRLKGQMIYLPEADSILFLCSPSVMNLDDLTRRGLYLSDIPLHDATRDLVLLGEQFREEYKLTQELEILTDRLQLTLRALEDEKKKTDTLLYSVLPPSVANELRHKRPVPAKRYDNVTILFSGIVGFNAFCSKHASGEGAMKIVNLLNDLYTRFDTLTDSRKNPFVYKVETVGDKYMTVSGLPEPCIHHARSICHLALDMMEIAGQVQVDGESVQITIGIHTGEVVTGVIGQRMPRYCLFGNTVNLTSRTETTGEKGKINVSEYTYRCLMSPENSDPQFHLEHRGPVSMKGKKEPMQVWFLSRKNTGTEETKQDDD
Assay: Cell-based sGC Functional Assay (CASA Assay)
Conditions: for Emax: CHO-K1, activation as percentage of maximum cGMP production of Compound A (set to 100%), read-out: % Act.; for EC50: inflection point of cGMP generation in CHO-K1/sGC cells, 4P fit, 1 hr at 37° C., read-out: IP; for % Act.: activation as percentage of maximum cGMP production of Compound A (set to 100%)
Outline: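 CHO-K1 cells stably expressing human sGC α1/β1 were incubated with compound for 1 h at 37 °C in buffer with 0.5 mM IBMX and 2.5% DMSO, with or without 1 μM DETA-NO. Intracellular cGMP was read by HTRF and expressed as percentage of maximal activation by reference activator Compound A. Values came from a 4-parameter fit.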

Compound	Emax [%]	EC50 [nM]	% Act. [%]
[2H]C([2H])([2H])n1ncc2c(-c3nc(N)c4c(n3)NC(=O)C4(C)c3coc(C)n3)nc(CCC(F)(F)C(F)(F)F)nc21 (stereo not shown) [Example 11, 4-Amino-5-methyl-2-(1-(methyl-d3)-6-(3,3,4,4,4-pentafluorobutyl)-1H-pyrazolo[3,4-d]pyrimidin-4-yl)-5-(2-methyloxazol-4-yl)-5,7-dihydro-6H-pyrrolo[2,3-d]pyrimidin-6-one]	126	626	–
Cn1ccc2c(-c3nc(N)c4c(n3)NC(=O)C4(c3nnc(C4CC4)o3)C3CC3)nc(CCC(F)(F)C(F)(F)F)nc21 (stereo not shown) [Example 88, 4-Amino-5-cyclopropyl-5-(5-cyclopropyl-1,3,4-oxadiazol-2-yl)-7′-methyl-2′-(3,3,4,4,4-pentafluorobutyl)-5,7-dihydro-6H,7′H-[2,4′-bipyrrolo[2,3-d]pyrimidin]-6-one]	109	715	–
C=CCn1cc(C2(C)C(=O)Nc3nc(-c4nc(CCC(F)(F)C(F)(F)F)nc5c4cnn5C)nc(N)c32)nn1 (single isomer, unassigned) [Example 75, 5-(1-allyl-1H-1,2,3-triazol-4-yl)-4-amino-5-methyl-2-(1-methyl-6-(3,3,4,4,4-pentafluorobutyl)-1H-pyrazolo[3,4-d]pyrimidin-4-yl)-5,7-dihydro-6H-pyrrolo[2,3-d]pyrimidin-6-one]	139	175	–
[2H]C([2H])([2H])n1ncc2c(-c3nc(N)c4c(n3)NC(=O)C4(c3nc(CC(C)(C)C(=O)O)cs3)C3CC3)nc(CCC(F)(F)C(F)(F)F)nc21 (stereo not shown) [Example 83, 3-(2-(4-Amino-5-cyclopropyl-2-(1-(methyl-d3)-6-(3,3,4,4,4-pentafluorobutyl)-1H-pyrazolo[3,4-d]pyrimidin-4-yl)-6-oxo-6,7-dihydro-5H-pyrrolo[2,3-d]pyrimidin-5-yl)thiazol-4-yl)-2,2-dimethylpropanoic acid]	80	797	–
4-Amino-5-methyl-5-(5-methyl-1,3,4-thiadiazol-2-yl)-2-(1-methyl-6-(3,3,4,4,4-pentafluorobutyl)-1H-pyrazolo[3,4-d]pyrimidin-4-yl)-5,7-dihydro-6H-pyrrolo[2,3-d]pyrimidin-6-one [Example 27]	–	208	89
[2H]C([2H])([2H])n1ncc2c(-c3nc(N)c4c(n3)NC(=O)C4(C)c3ccc(F)cn3)nc(CCC(F)(F)C(F)(F)F)nc21 (stereo not shown) [Example 2, 4-Amino-5-(5-fluoropyridin-2-yl)-5-methyl-2-(1-(methyl-d3)-6-(3,3,4,4,4-pentafluorobutyl)-1H-pyrazolo[3,4-d]pyrimidin-4-yl)-5H-pyrrolo[2,3-d]pyrimidin-6(7H)-one]	135	72	–
[2H]C([2H])([2H])n1ncc2c(-c3nc(N)c4c(n3)NC(=O)C4(C)c3nnc(C4CC4)o3)nc(CCC(F)(F)C(F)(F)F)nc21 (stereo not shown) [Example 39, 4-Amino-5-(5-cyclopropyl-1,3,4-oxadiazol-2-yl)-5-methyl-2-(1-(methyl-d3)-6-(3,3,4,4,4-pentafluorobutyl)-1H-pyrazolo[3,4-d]pyrimidin-4-yl)-5,7-dihydro-6H-pyrrolo[2,3-d]pyrimidin-6-one]	115	150	–
[2H]C([2H])([2H])n1ncc2c(-c3nc(N)c4c(n3)NC(=O)C4(C)c3ccnc(C(=O)OC)c3)nc(CCC(F)(F)C(F)(F)F)nc21 (stereo not shown) [Example 18, Methyl 4-(4-amino-5-methyl-2-(1-(methyl-d3)-6-(3,3,4,4,4-pentafluorobutyl)-1H-pyrazolo[3,4-d]pyrimidin-4-yl)-6-oxo-6,7-dihydro-5H-pyrrolo[2,3-d]pyrimidin-5-yl)picolinate]	88	411	–
Cc1noc(C2(C)C(=O)Nc3nc(-c4nc(Cc5cccc(F)c5F)nc5c4cnn5C)nc(N)c32)n1 (stereo not shown) [Example 5, 4-Amino-2-(6-(2,3-difluorobenzyl)-1-methyl-1H-pyrazolo[3,4-d]pyrimidin-4-yl)-5-methyl-5-(3-methyl-1,2,4-oxadiazol-5-yl)-5,7-dihydro-6H-pyrrolo[2,3-d]pyrimidin-6-one]	88	10	–
COc1ccc(C2(C)C(=O)Nc3nc(-c4nc(CC5CC(F)(F)C5)nc5c4cnn5C)nc(N)c32)nc1 (stereo not shown) [Example 33, 4-Amino-2-(6-((3,3-difluorocyclobutyl)methyl)-1-methyl-1H-pyrazolo[3,4-d]pyrimidin-4-yl)-5-(5-methoxypyridin-2-yl)-5-methyl-5,7-dihydro-6H-pyrrolo[2,3-d]pyrimidin-6-one]	104	32	–
[2H]C([2H])([2H])n1ncc2c(-c3nc(N)c4c(n3)NC(=O)C4(c3cnn(C)c3)C3CC3)nc(CCC(F)(F)C(F)(F)F)nc21 (stereo not shown) [Example 24, 4-Amino-5-cyclopropyl-5-(1-methyl-1H-pyrazol-4-yl)-2-(1-(methyl-d3)-6-(3,3,4,4,4-pentafluorobutyl)-1H-pyrazolo[3,4-d]pyrimidin-4-yl)-5,7-dihydro-6H-pyrrolo[2,3-d]pyrimidin-6-one]	84	885	–
[2H]C([2H])([2H])n1cc(C2(C)C(=O)Nc3nc(-c4nc(CCC(F)(F)C(F)(F)F)nc5c4cnn5C)nc(N)c32)nn1 (single isomer, unassigned) [Example 77, 4-Amino-5-methyl-2-(1-methyl-6-(3,3,4,4,4-pentafluorobutyl)-1H-pyrazolo[3,4-d]pyrimidin-4-yl)-5-(1-(methyl-d3)-1H-1,2,3-triazol-4-yl)-5,7-dihydro-6H-pyrrolo[2,3-d]pyrimidin-6-one]	157	168	–
CCCn1cc(C2(CC)C(=O)Nc3nc(-c4nc(CCC(F)(F)C(F)(F)F)nc5c4cnn5C)nc(N)c32)nn1 (single isomer, unassigned) [Example 72, 4-Amino-5-ethyl-2-(1-methyl-6-(3,3,4,4,4-pentafluorobutyl)-1H-pyrazolo[3,4-d]pyrimidin-4-yl)-5-(1-propyl-1H-1,2,3-triazol-4-yl)-5,7-dihydro-6H-pyrrolo[2,3-d]pyrimidin-6-one]	121	503	–
[2H]C([2H])([2H])n1ncc2c(-c3nc(N)c4c(n3)NC(=O)C4(C)c3ccc(OC)cn3)nc(CCC(F)(F)C(F)(F)F)nc21 (stereo not shown) [Example 12, 4-Amino-5-(5-methoxypyridin-2-yl)-5-methyl-2-(1-(methyl-d3)-6-(3,3,4,4,4-pentafluorobutyl)-1H-pyrazolo[3,4-d]pyrimidin-4-yl)-5,7-dihydro-6H-pyrrolo[2,3-d]pyrimidin-6-one]	104	–	–
4-Amino-5-ethyl-2-(1-methyl-6-(3,3,4,4,4-pentafluorobutyl)-1H-pyrazolo[3,4-d]pyrimidin-4-yl)-5-(1-propyl-1H-1,2,3-triazol-4-yl)-5,7-dihydro-6H-pyrrolo[2,3-d]pyrimidin-6-one [Example 73]	–	416	117
[2H]C([2H])([2H])n1ncc2c(-c3nc(N)c4c(n3)NC(=O)C4(c3nnc(C4CCC4)o3)C3CC3)nc(CCC(F)(F)C(F)(F)F)nc21 (stereo not shown) [Example 46, 4-Amino-5-(5-cyclobutyl-1,3,4-oxadiazol-2-yl)-5-cyclopropyl-2-(1-(methyl-d3)-6-(3,3,4,4,4-pentafluorobutyl)-1H-pyrazolo[3,4-d]pyrimidin-4-yl)-5,7-dihydro-6H-pyrrolo[2,3-d]pyrimidin-6-one]	97	258	–
